# Assays:
# [1] = molecular target: T1, 5-HT2C serotoninergic receptor (Homo sapiens, UniProt P28335); experiment: 5-HT2C intrinsic activity, antagonist mode (AequoScreen calcium mobilization); assay type: cell-based; conditions: n.a. = no activity at 10–5 M
# T1 sequence (P28335 33-458): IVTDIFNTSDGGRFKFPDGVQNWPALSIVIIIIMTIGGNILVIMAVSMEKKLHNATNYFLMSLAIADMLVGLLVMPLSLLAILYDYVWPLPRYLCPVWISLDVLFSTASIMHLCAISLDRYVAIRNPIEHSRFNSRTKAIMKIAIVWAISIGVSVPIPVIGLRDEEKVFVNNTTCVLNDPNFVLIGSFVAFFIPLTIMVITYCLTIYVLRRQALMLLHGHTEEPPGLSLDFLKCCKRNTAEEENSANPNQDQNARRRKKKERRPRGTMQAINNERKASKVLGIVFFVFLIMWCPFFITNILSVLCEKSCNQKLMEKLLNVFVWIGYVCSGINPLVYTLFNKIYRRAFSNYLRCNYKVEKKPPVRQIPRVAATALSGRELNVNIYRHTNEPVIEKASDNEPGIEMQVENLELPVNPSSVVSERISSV
# Method: (§1) The determination of intrinsic activity will be performed in accordance with the manufacturer’s Aequoscreen methodology—Perkin Elmer.
# (§2) The cell density in the 96-well format was 5000 cells per well. Cell preparation for the assay was performed according to the manufacturer’s instructions for AequoScreen (PerkinElmer, Waltham, MA, USA). […] The cells suspension was applied onto the ligands with the injectors of the POLARstar optima reader (BMG Labtech, Ortenberg, Germany). […] The concentration and dilution series having four replicates were prepared as instructed in the AequoScreen Starter Kit Manual (PerkinElmer, Waltham, MA, USA). The wells received cell injections along with either the standard agonist or the compounds being evaluated, while the POLARstar optima reader documented the emitted light over a duration of 20 s. In the antagonist evaluation, cells were administered (50 μL) into the assay plate alongside antagonist solutions (50 μL). A single concentration of agonist (oxymetazoline) was injected (50 μL, final concentration EC80) into the preincubated (15–20 min) plate with cells and antagonist, and the emitted light was recorded for 20 s.
# α1-adrenoceptor = experiment: Competitive radioligand binding, [3H]prazosin, rat cerebral cortex; conditions: n.a. = no activity at 10–5 M
# Method: The competitive radioligand-binding assay assessed affinity for α1- and α2-adrenoceptors. Experiments were carried out in the rat cerebral cortex. […] The membrane preparation and assay technique followed the previously reported protocol. Radioactivity was measured using the MicroBeta2 scintillation counter (PerkinElmer, Kraków, Poland). The data was adjusted to match a single-site curve-fitting formula using Prism 8 (GraphPad Software, La Jolla, CA, USA), and the Ki values were estimated by means of the Cheng–Prusoff formula.
# α2B-adrenoceptor = molecular target: T2, α2B-adrenoceptor (Homo sapiens, UniProt P18089); experiment: α2B-adrenoceptor intrinsic activity, antagonist mode (AequoScreen); assay type: cell-based; conditions: n.a. = no activity at 10–5 M; read-out: α2B Ant IC50
# T2 sequence (P18089 1-450): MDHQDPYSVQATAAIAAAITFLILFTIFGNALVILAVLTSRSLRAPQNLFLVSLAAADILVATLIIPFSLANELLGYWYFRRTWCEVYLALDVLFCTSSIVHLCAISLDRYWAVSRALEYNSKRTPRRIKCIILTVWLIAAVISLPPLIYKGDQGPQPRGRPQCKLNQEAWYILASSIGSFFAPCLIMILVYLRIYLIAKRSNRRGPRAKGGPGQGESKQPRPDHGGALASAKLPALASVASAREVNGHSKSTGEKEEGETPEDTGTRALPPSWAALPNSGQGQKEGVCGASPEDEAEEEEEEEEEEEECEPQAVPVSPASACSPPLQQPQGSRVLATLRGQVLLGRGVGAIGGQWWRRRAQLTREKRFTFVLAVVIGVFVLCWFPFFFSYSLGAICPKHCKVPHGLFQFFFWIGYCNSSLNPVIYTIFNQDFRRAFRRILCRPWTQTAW
# Method: as §1, §2
# C57BL/6 mice = experiment: Inhibition of gastric emptying (mouse model, phenol red); assay type: in vivo
# Method: Fifty male C57BL/6 mice (22–27 g) were housed in standard cages while maintaining a 12:12-h light/dark cycle, with food and water available ad libitum. The experimental procedures were performed from 10:00 a.m. to 14:00 p.m.
# The experiment was conducted according to Miyasaka et al. and Kotańska et al., with some minor modifications. Mice were subjected to a 20 h food deprivation and a 2 h water deprivation prior to testing. The animals received a vehicle (0.25 mL/mouse) alone or along with various compounds: JP-14 (10 mg/kg b. w.), RT (5 mg/kg body weight), metformin (100 mg/kg b. w.), or loperamide (reference compound; 10 mg/kg b. w.) via gastric gavage. Following a 45 min interval, phenol red (0.5 mL, 0.05% w/v) combined with glucose (1 g/kg body weight) was administered through the same route. Additionally, each group received an intraperitoneal injection of heparin (2500 U/mouse) 20 min prior to the collection of stomach contents. Seven mice treated with the vehicle were sacrificed immediately after the phenol red administration to serve as a standard control (representing 100% phenol red in the stomach at 0 min), establishing a baseline for maximum absorbance (100%). The leftover mice were sacrificed 30 min later. The stomachs were removed and homogenized using an OMNI homogenizer (OMNI International Company, Kennesaw, GA, USA), with 10 mL of 0.1 N NaOH. To 5 mL of homogenate, 0.5 mL of 20% w/v solution of trichloroacetic acid was incorporated to precipitate the proteins. Subsequently, the samples were centrifuged at 600× g for 15 min at a temperature of 20 °C, and 0.25 mL of supernatant was mixed with 1 mL of 0.5 N NaOH to achieve maximum color intensity. The concentration of phenol red was measured using spectrophotometry, with absorbance evaluated at a wavelength of 560 nm (MuLTISKAN.GO, Thermo Fisher Scientific Inc., Waltham, MA USA). For each mouse, the percentage of gastric emptying (GE %) was calculated using the following equation:(1) GE%=(Ac0−Ab)/(Ac0−Ac30)×100% where: Ac0 is the absorbance of the control gastric sample collected immediately after dye administration, and Ac30 is the absorbance of the control gastric sample collected 30 min after dye administration, i.e., Ac0–Ac30 = 100% gastric emptying.
# HEPG2 cell line = experiment: Cell viability assay (PrestoBlue, metabolic function), HepG2; assay type: cell-based, human; conditions: 24 h, mean
# Method: Prior to investigating the biological activity and molecular characteristics of the test compounds in vitro, a comprehensive cytotoxicity screening was performed using HepG2 and 3T3-L1 cell lines. Two complementary assays were applied: one based on the quantification of adenylate kinase release as an indicator of cell membrane damage, and another relying on resazurin reduction to assess cellular metabolic activity. These complementary assays enable sensitive and reliable detection of cytotoxic effects across diverse cell types. This preliminary assessment was carried out to ensure that subsequent functional analyses would not be confounded by nonspecific cytotoxic effects.
# Cell viability was measured using PrestoBlue reagent (Thermo Fisher Scientific, Waltham, MA, USA), following the manufacturer’s instructions. After 24 h of compound treatment, PrestoBlue reagent was added to each well at 10% of the remaining medium volume. The plate was incubated at 37 °C for 15 min, and fluorescence was measured using the POLARstar Omega plate reader (excitation 530 nm, emission 580 nm). Results were expressed as a percentage of viable cells relative to the DMSO-treated control.
# Danio rerio larvae = experiment: In vivo toxicity assay in zebrafish larvae (Casper and ABTL lines)
# Method: To determine the toxicity of JP-14 to zebrafish larvae, 76 h post-fertilized (hpf) larvae ([…], ten per well) were kept in a 6-well plate and exposed to three concentrations of compound JP-14 diluted with embryonic medium (E3), whereas untreated larvae served as control (E3 alone). Each concentration was incubated in twelve wells. The mortality rate and disturbances were determined using a microscope (OPTA-TECH MN16, Warszawa, Poland) after 24 h of exposure.
smiles,measurement,setting,value
"[H]/N=C(\N)NN=Cc1c(Cl)cncc1Cl [JP-14, (E)-2-((3,5-Dichloropyridin-4-yl)Methylene)Hydrazine-1-Carboximidamide]",5-HT2C Ant EC50,[1],did not exhibit any measurable agonistic or antagonistic activity
same,α1 Ki,α1-adrenoceptor,did not exhibit notable affinity
same,IC50,α2B-adrenoceptor,622 nM
same,reduction of the effect of JP-14 on gastric emptying by RTI-7470-44,C57BL/6 mice; JP-14 10 mg/kg + RTI-7470-44 5 mg/kg b.w.,about 40%
same,percentage inhibition of gastric emptying,C57BL/6 mice; JP-14 10 mg/kg b.w. combined with RTI-7470-44 5 mg/kg b.w.,about 25%
same,percentage inhibition of gastric emptying,"C57BL/6 mice; intragastric, 10 mg/kg b.w.",about 66%
same,"cellular metabolic function, percentage relative to control (live cells)","HEPG2 cell line; Table S4, 0.1 μM",96%
same,"cellular metabolic function, percentage relative to control (live cells)","HEPG2 cell line; Table S4, 1 μM",101%
same,"cellular metabolic function, percentage relative to control (live cells)","HEPG2 cell line; Table S4, 10 μM",95%
same,"cellular metabolic function, percentage relative to control (live cells)","HEPG2 cell line; Table S4, 50 μM",71%
same,"cellular metabolic function, percentage relative to control (live cells)","HEPG2 cell line; Table S4, 100 μM",60%
same,effect on pigmentation,Danio rerio larvae,no effect on pigmentation was observed
same,concentration not causing any visible disturbances,"Danio rerio larvae; Casper and AB/TL lines, zebrafish (Danio rerio), 24 h",10000 ng/mL

# From article PMC12563652 (International Journal of Molecular Sciences, 2025)
